Values of other authors in patent US20110039804A1, “Composition of Risedronate and Vitamin D3” (LANDSTEINER SCIENTIFIC, S.A. de C.V., priority 2006, published 2011).
Where two headings read alike, the source gives them in different places.

Columns and labels:
[1] = test system: patients with Paget's disease
[2] = Paget's disease, 35 mg daily for two months

Structure (SMILES): O=P([O-])(O)C(O)(Cc1cccnc1)P(=O)(O)O.[Na+] [sodium risedronate]
- systemic metabolism (in vivo): no evidence of systemic metabolism
- effect of food on oral bioavailability (tablet administered with food): reduces
- mid oral bioavailability (tablet, oral): 0.63%

Structure (SMILES): O=P(O)(O)C(O)(Cc1cccnc1)P(=O)(O)O [risedronate, 3-pyridil-1-hydroxyethylyden-1,1-bisphosphonic acid]
- deoxypyridinoline/urinary creatinine ratio [1, 2]: Significantly reduced
- hydroxyproline/urinary creatinine ratio [1, 2]: Significantly reduced
- new fractures ([1]; Paget's disease, 35 mg daily for two months, x-rays before and after 6 months): no new fractures
- Patients with normalized serum alkaline phosphatase concentration ([1]; Paget's disease, daily dose of 35 mg risedronate for two months): 77%
- dimension of lithic lesions in the axial and appendicular skeleton ([1]; Paget's disease, x-rays before and after 6 months of treatment): Reduced
- Patients staying on biochemical remission ([1]; during the 18 months following the two-month treatment): Fifty-three
- average distribution volume in a state of balance (humans): 6.3 L/kg
- Tmax (single oral administration, studied range 2.5 mg to 30 mg single dose): approximately 1 hour

Structure (SMILES): CC(O)(P(=O)(O)O)P(=O)(O)O [etidronate]
- Patients with normalized serum alkaline phosphatase concentration ([1]; Paget's disease, control group, etidronate 400 mg/day for 6 months): 11%
